Experimental data published in the NIST ThermoML archive (doi:10.1016/j.jct.2014.12.017).
Numbers after ± are expanded uncertainties.

Experiment: wn = mass fraction of the nth substance listed
Conditions: 297.15 K; 101 kPa; Liquid; Alternating current cell with electrodes; w1 = 0.1

Point of comparison: `CCCCn1cc[n+](C)c1.[Br-]` [1-butyl-3-methylimidazolium bromide] + O, electrical conductivity 2.87 ± 0.03 S/m. Against it:
- CCCCn1cc[n+](C)c1.N#CN=C=[N-] [1-butyl-3-methylimidazolium dicyanamide] + O — lower, 1.9 ± 0.019 S/m
- CCCCn1cc[n+](C)c1.O=S(=O)([O-])O [1-butyl-3-methylimidazolium hydrogen sulfate] + O — higher, 7.63 ± 0.08 S/m
- CCCCn1cc[n+](C)c1.[Cl-] [1-butyl-3-methylimidazolium chloride] + O — higher, 3.43 ± 0.03 S/m
- CCCCn1cc[n+](C)c1.COS(=O)(=O)[O-] [1-butyl-3-methylimidazolium methyl sulfate] + O — lower, 1.727 ± 0.017 S/m
- CCCCn1cc[n+](C)c1.[O-][Cl+3]([O-])([O-])[O-] [1-butyl-3-methylimidazolium perchlorate] + O — lower, 2.18 ± 0.02 S/m
- Cn1cc[n+](CCO)c1.[Br-] [3-(2-hydroxyethyl)-1-methyl-1H-imidazolium bromide] + O — higher, 3.58 ± 0.04 S/m
- CCCCn1cc[n+](C)c1.O=S(=O)([O-])C(F)(F)F [1-butyl-3-methylimidazolium trifluoromethanesulfonate] + O — lower, 1.38 ± 0.014 S/m
- C[n+]1ccn(CCO)c1.[Cl-] [1-(2-hydroxyethyl)-3-methyl-1H-imidazolium chloride] + O — higher, 4.19 ± 0.04 S/m
